Experimental data as given in patent US8629273B2, “Diazinylpyrazolyl compounds” (Bayer Intellectual Property GmbH, priority 2009, dated 2014).

Key:
[1] = test system: caterpillars of the army worm (Spodoptera frugiperda); assay: Spodoptera frugiperda test (SPODFR spray treatment); assay type: in vivo; conditions: 100 g/ha, after 7 days
Procedure: Solvents: 78.0 parts by weight of acetone • • 1.5 parts by weight of dimethyl formamide Emulsifier: 0.5 part by weight of alkylaryl polyglycol ether To produce a suitable preparation of active compound, 1 part by weight of active compound is mixed with the stated amounts of solvent and emulsifier, and the concentrate is diluted with emulsifier-containing water to the desired concentration. Discs of maize leaves (Zea mays) are sprayed with an active compound preparation of the desired concentration and, after drying, populated with caterpillars of the army worm (Spodoptera frugiperda). After 7 days, the activity in % is determined. 100% means that all caterpillars have been killed; 0% means that none of the caterpillars have been killed. The test was carried out and evaluated as described in Example B.5.

Boophilus microplus = Boophilus microplus test (BOOPMI injection); assay type: in vivo; conditions: 20 μg/animal, injected into the abdomen, after 7 days
Procedure: Solvent: Dimethyl Sulphoxide To produce a suitable preparation of active compound, 10 mg of active compound are mixed with 0.5 ml of solvent, and the concentrate is diluted with water to the desired concentration. The active compound solution is injected into the abdomen (Boophilus microplus) and the animals are transferred into dishes and stored in a climatized room. The activity is monitored for deposition of fertile eggs. After 7 days, the activity in % is determined. 100% means that none of the ticks has laid fertile eggs.

[2] = logP by HPLC on reversed-phase columns (C 18), EU Guideline 79/831 Annex V.A8; assay type: physicochemical; conditions: ** LC-MS in the neutral range, pH 7.8, 0.001 molar aqueous ammonium bicarbonate and acetonitrile
[3] = test system: larvae of the mustard beetle (Phaedon cochleariae); assay: Phaedon test (PHAECO spray treatment); assay type: in vivo; conditions: 100 g/ha, after 7 days
Procedure: Solvents: 78.0 parts by weight of acetone • • 1.5 parts by weight of dimethyl formamide Emulsifier: 0.5 part by weight of alkylaryl polyglycol ether To produce a suitable preparation of active compound, 1 part by weight of active compound is mixed with the stated amounts of solvent and emulsifier, and the concentrate is diluted with emulsifier-containing water to the desired concentration. Discs of Chinese cabbage leaves (Brassica pekinensis) are sprayed with an active compound preparation of the desired concentration and, after drying, populated with larvae of the mustard beetle (Phaedon cochleariae). After 7 days, the activity in % is determined. 100% means that all beetle larvae have been killed; 0% means that none of the beetle larvae have been killed. The test was carried out and evaluated as described in Example B.4.

Ctenocephalides felis = Ctenocephalides felis oral (CTECFE); assay type: in vivo; conditions: 100 ppm in citrated cattle blood, after 2 days
Procedure: Solvent: 1 part by weight of dimethyl sulphoxide To produce a suitable preparation of active compound, 10 mg of active compound are mixed with 0.5 ml of dimethyl sulphoxide. One part of the concentrate is diluted with citrated cattle blood, and the desired concentration is prepared. 20 unfed adult fleas (Ctenocephalides felis) are placed into a chamber whose top and bottom ends are closed with gauze. A metal cylinder whose bottom end is closed with parafilm is placed onto the chamber. The cylinder contains the blood/active compound preparation, which can be taken up by the fleas through the parafilm membrane. After 2 days, the kill in % is determined. 100% means that all fleas have been killed; 0% means that none of the fleas have been killed.

Lucilia cuprina larvae = assay: Lucilia cuprina test (LUCICU); assay type: in vivo; conditions: 100 ppm, treated horse meat, after 2 days
Procedure: Solvent: Dimethyl Sulphoxide To produce a suitable preparation of active compound, 10 mg of active compound are mixed with 0.5 ml of dimethyl sulphoxide, and the concentrate is diluted with water to the desired concentration. Containers containing horse meat treated with the active compound preparation of the desired concentration are populated with Lucilia cuprina larvae. After 2 days, the kill in % is determined. 100% means that all larvae have been killed; 0% means that none of the larvae have been killed.

[4] = test system: Boophilus microplus strain Parkhurst (SP-resistant); assay: Boophilus microplus test (DIP); assay type: in vivo; conditions: 100 ppm
Procedure: Test animals: adult fed females of the Boophilus microplus strain Parkhurst (SP-resistant)
Solvent: Dimethyl sulphoxide
10 mg of active compound are dissolved in 0.5 ml of dimethyl sulphoxide. To produce a suitable formulation, the active compound solution is diluted with water to the particular desired concentration. This active compound preparation is pipetted into tubes. 8-10 ticks are transferred into a further tube provided with holes. The tube is dipped into the active compound preparation, with all ticks being wetted completely. After the liquid has run off, the ticks are transferred to filter discs in plastic dishes and kept in a climatized room. After the desired period of time, the activity is checked for deposition of fertile eggs. Eggs whose fertility is not visible from the outside are kept in glass tubes in a climatized cupboard under the larvae have hatched. An activity of 100% means that no tick has laid fertile eggs.

adult Musca domestica = assay: Musca domestica test (MUSCDO); assay type: in vivo; conditions: treated sponge
Procedure: Solvent: Dimethyl sulphoxide To prepare a suitable preparation of active compound, 10 mg of active component are mixed with 0.5 ml of dimethyl sulphoxide, and the concentrate is diluted with water to the desired concentration. Vessels containing a sponge which had been treated with the active compound preparation of the desired concentration are populated with adult Musca domestica. After the desired period of time, the kill in % is determined. 100% means that all flies have been killed; 0% means that none of the flies have been killed.

Row | SMILES | logP [2] | activity (caterpillars killed) [1] [%] | activity (no deposition of fertile eggs) (Boophilus microplus) [%] | activity (beetle larvae killed) [3] [%] | kill (Ctenocephalides felis) [%] | kill (Lucilia cuprina larvae) [%] | activity (no deposition of fertile eggs) [4] [%] | kill (adult Musca domestica; 100 ppm) [%] | kill (adult Musca domestica; 20 ppm) [%]
1 | COc1ccc(C=Nc2c(-c3cc(Cl)c4c(c3)OCO4)c(C(F)(F)C(F)F)nn2-c2ncccn2)cc1 [Example 1-23] | 3.85** | 100 | 100 | 100 | 100 | 100 | 100 | – | –
2 | FC(F)C(F)(F)c1nn(-c2ncccn2)c(N=Cc2ccccc2)c1-c1cc(Cl)c2c(c1)OCO2 [Example 1-24] | 3.9** | 100 | 100 | 100 | 100 | 100 | 100 | 80 | –
3 | FC(F)(F)c1nn(-c2ncccn2)c(N=Cc2ccc(Cl)cc2)c1-c1cc(Cl)c2c(c1)OCO2 [Example 1-25] | 4.51** | 100 | 100 | 100 | 100 | 100 | 100 | – | 100
4 | COc1ccc(C=Nc2c(-c3cc(Cl)c4c(c3)OCO4)c(C(F)(F)F)nn2-c2ncccn2)cc1 [Example 1-26] | 3.97** | 100 | 100 | 100 | 100 | 100 | 100 | – | –
5 | COc1cc(C=Nc2c(-c3cc(Cl)c4c(c3)OCO4)c(C(F)(F)F)nn2-c2ncccn2)cc(OC)c1OC [Example 1-27] | 3.82** | – | 100 | 100 | 100 | 100 | 100 | 80 | –
6 | COc1cc(C=Nc2c(-c3cc(Cl)cc(C(F)(F)F)c3)c(C(F)(F)F)nn2-c2ncccn2)cc(OC)c1OC [Example 1-28] | 4.85** | 83 | 100 | 100 | 95 | 100 | – | 100 | –
7 | COc1cc(C=Nc2c(-c3cc(Cl)cc(C(F)(F)F)c3)c(C(F)(F)C(F)F)nn2-c2ncccn2)cc(OC)c1OC [Example 1-29] | 4.67** | 100 | 100 | 100 | 95 | 100 | – | 100 | –
8 | COc1cc(C=Nc2c(-c3cc(Cl)c4c(c3)OCO4)c(C(F)(F)C(F)F)nn2-c2ncccn2)cc(OC)c1OC [Example 1-30] | 3.72** | 100 | 100 | 100 | 100 | 100 | 100 | – | –
9 | CCOC=Nc1c(-c2cc(Cl)c3c(c2)OCO3)c(C(F)(F)F)nn1-c1ncccn1 [Example 1-33] | 3.49** | 100 | 100 | 100 | 100 | 100 | 100 | – | –
10 | FC(F)(F)c1cc(Cl)cc(-c2c(C(F)(F)C(F)(F)F)nn(-c3ncccn3)c2N=Cc2ccccc2)c1 [Example 1-42] | 5.46** | 100 | 100 | 100 | 95 | 100 | – | 100 | –

Further lines, with some results ahead:

Row | logP [2] | SMILES | activity (caterpillars killed) [1] [%] | activity (no deposition of fertile eggs) (Boophilus microplus) [%] | activity (beetle larvae killed) [3] [%] | kill (Ctenocephalides felis) [%] | kill (Lucilia cuprina larvae) [%] | activity (no deposition of fertile eggs) [4] [%] | kill (adult Musca domestica; 100 ppm) [%] | kill (adult Musca domestica; 20 ppm) [%]
11 | 4.58** | COc1nccnc1-n1nc(C(F)(F)F)c(-c2cc(Cl)c3c(c2)OCO3)c1N=Cc1ccccc1 [Example 2-6] | – | 100 | – | 100 | 100 | 100 | – | –
12 | 6.01** | COc1nccnc1-n1nc(C(F)(F)F)c(-c2cc(Cl)cc(C(F)(F)F)c2)c1N=Cc1ccc(Cl)cc1 [Example 2-7] | – | 100 | – | 90 | 100 | 100 | 90 | –
13 | 5.48** | COc1ccc(C=Nc2c(-c3cc(Cl)cc(C(F)(F)F)c3)c(C(F)(F)F)nn2-c2nccnc2OC)cc1 [Example 2-8] | – | 100 | – | 95 | 100 | 100 | – | –
14 | 5.37** | COc1nccnc1-n1nc(C(F)(F)C(F)F)c(-c2cc(Cl)cc(C(F)(F)F)c2)c1N=Cc1ccccc1 [Example 2-11] | – | 100 | – | 90 | 100 | 90 | 90 | –
15 | 4.48** | COc1nccnc1-n1nc(C(F)(F)C(F)F)c(-c2cc(Cl)c3c(c2)OCO3)c1N=Cc1ccccc1 [Example 2-13] | – | 100 | – | 100 | 100 | 100 | 80 | –
16 | 5.1** | COc1nccnc1-n1nc(C(F)(F)F)c(-c2cc(Cl)c3c(c2)OCO3)c1N=Cc1ccc(Cl)cc1 [Example 2-14] | – | 100 | – | 100 | 100 | 100 | 90 | –
17 | 5.35** | COc1cc(C=Nc2c(-c3cc(Cl)cc(C(F)(F)F)c3)c(C(F)(F)F)nn2-c2nccnc2OC)cc(OC)c1OC [Example 2-16] | – | 100 | – | – | 100 | 100 | 90 | –
18 | 5.12** | COc1cc(C=Nc2c(-c3cc(Cl)cc(C(F)(F)F)c3)c(C(F)(F)C(F)F)nn2-c2nccnc2OC)cc(OC)c1OC [Example 2-17] | – | 100 | – | – | 100 | 100 | 100 | –
